The subject of the series is Salmonella typhimurium Ames mutagenicity, literature compiled. Briefly: DSSTox (CPDBAS) Carcinogenic Potency Database Salmonella Mutagenicity. The text has this: The Carcinogenic Potency Database (CPDB) is a unique and widely used international resource of the results of over 6500 chronic, long-term animal cancer tests on over 1500 chemical substances. The CPDB provides easy access to the bioassay literature, with qualitative and quantitative analyses of both positive and negative experiments that have been published over the past 50 years in the general literature and by the National Cancer Institute/National Toxicology Program. The CPDB standardizes the diverse literature of cancer bioassays that vary widely in protocol, histopathological examination and nomenclature, and in the published author's choices of what information to provide in their papers. Results are reported in the CPDB for tests in rats, mice, hamsters, dogs, and nonhuman primates, and are based on the most positive result among all experiments for each sex-species. The DSSTox CPDBAS (all species) file incorporates data from the CPDB Summary Tables for the full list of over 1500 chemical substances tested in at least one species.
A chemical is classified within the CPDB as mutagenic, i.e. "active", in the Salmonella assay if it was evaluated overall as either "mutagenic" or "weakly mutagenic" by Zeiger [Zeiger, E. (1997) Genotoxicity Database. In: Gold and Zeiger, Eds. Handbook of Carcinogenic Potency and Genotoxicity Databases. Boca Raton, FL: CRC Press, pp. 687-729. http://potency.berkeley.edu/CRCbook.html] or as overall "positive" by the EPA Gene-Tox Program [Kier et al. (1986) Mutat. Res. 168: 69-240].

111 molecules from PubChem BioAssay AID1194 (EPA DSSTox, 2008) can be followed below.

Active and inactive are the calls of the source.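 The calls were made as follows: active = chemicals rated mutagenic or weakly mutagenic in the Salmonella bacterial test by one literature review, or positive overall by another; inconclusive = no clear call, values can overlap the other calls; inactive = the rest.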

As for `OCc1ccco1`, the outcome was “inactive; active”.

Take `ClCC(Br)CBr` (stereo unspecified): the outcome was “active; inactive”.

For `CCN(CC)C(=O)/C(Cl)=C(\C)OP(=O)(OC)OC`, the outcome is “active; inactive”.

As to `CCOc1ccc(NC(N)=O)cc1`, the outcome is “inactive; active”.

On to `CCCCN(CCCCO)N=O`, for which the outcome was “active; inactive”.

As for `Oc1ccccc1O`, the outcome was “inactive; active”.

In the case of `[O-]/[N+](=N\O)c1ccccc1`, the outcome was “active; inactive”.

For `O=NN1CCOCC1`, the result was active.

For the molecule `Nc1nc(-c2ccc([N+](=O)[O-])o2)cs1`, the outcome was active.

In the case of `O=NN1CCSCC1`, the outcome was “active; inactive”.

With `CC(C)CON=O`, the outcome was “active; inactive”.

In the case of `OCCBr`, the outcome was active.

For `c1ccc2n[nH]nc2c1`, the outcome was “active; inactive”.

Consider `O=C1CCCCC1`, for which the outcome is “inactive; active”.

Take `Clc1ccc2c(c1)Oc1ccc(Cl)cc1O2`: the result was inactive.

As for `Nc1ccc2cc3ccc(N)cc3nc2c1`, the result was active.

Consider `C/C=C/C=C/C(=O)O`, for which the outcome was inactive.

Take `NCCCCCCCCCCC(=O)O`: the outcome is “inactive; active”.

As for `CCCCCCCCCCCCCCCC(=O)OC/C=C(C)/C=C/C=C(C)/C=C/C1=C(C)CCCC1(C)C`, the outcome was “inactive; active”.

In the case of `C#C[C@]1(O)CC[C@H]2[C@@H]3CCc4cc(OC)ccc4[C@H]3CC[C@@]21C`, the outcome was inactive.

Turning to `CC1=NN(c2ccccc2)C(=O)C1`, the outcome was inactive.

As to `Nc1cccc(N)c1`, the result was active.

Regarding `Oc1c(Cl)cc(Cl)c(Cl)c1Cc1c(O)c(Cl)cc(Cl)c1Cl`, the outcome was “inactive; active”.

Take `COc1cccc2c1cc([N+](=O)[O-])c1c(C(=O)O)cc3c(c12)OCO3`: the outcome was active.

For the molecule `O=C(O)CC[N+](=O)[O-]`, the outcome was “active; inactive”.

As to `NC(=O)c1cnccn1`, the outcome was “inactive; active”.

Regarding `OCC1CO1` (stereo unspecified), the outcome is “active; inactive”.

For the molecule `Cc1ccc(S(=O)(=O)NC(=O)NN2CCCCCC2)cc1`, the outcome was “inactive; active”.

For `CCN(N=O)C(N)=O`, the outcome was “active; inactive”.

Regarding `NC(N)=S`, the outcome was “inactive; active”.

Regarding `CN(N=O)c1ccncc1`, the outcome was “inactive; active”.

On to `O=CNNc1nc(-c2ccc([N+](=O)[O-])o2)cs1`, for which the outcome is “active; inactive”.

As to `CC(C)(c1ccc(O)cc1)c1ccc(O)cc1`, the outcome was inactive.

As to `CN(C)CCN(Cc1cccs1)c1ccccn1`, the outcome is “inactive; active”.

Regarding `O=c1ccc(=O)[nH][nH]1`, the outcome is “inactive; active”.

For the molecule `NC(=O)Cc1cccc2ccccc12`, the outcome was active.

On to `CC1CO1` (stereo unspecified), for which the result was active.

As to `O=NN1CCCCCCCCCCCC1`, the outcome was “active; inactive”.

As for `Nc1cc([N+](=O)[O-])ccc1C(=O)O`, the outcome was active.

With `C=Cc1ccccc1`, the outcome is “active; inactive”.

For the molecule `Cc1cc(N=Nc2c(O)ccc3ccccc23)c(S(=O)(=O)O)cc1Cl`, the outcome was active.

As to `COP(=O)(OC)OC`, the outcome is “active; inactive”.

In the case of `C=CCOCC1CO1` (stereo unspecified), the result was active.

In the case of `CC(=O)Nc1ccc(C(=O)CCl)cc1`, the result was active.

For `ClC(Cl)Cl`, the result was inactive.

Consider `Cc1cnc2ccc3c(nc(N)n3C)c2n1`, for which the outcome was active.

As for `CC(COc1ccccc1)N(CCCl)Cc1ccccc1` (stereo unspecified), the outcome is “active; inactive”.

In the case of `O=P(OC(CCl)CCl)(OC(CCl)CCl)OC(CCl)CCl`, the result was active.

Take `Nc1ccc(N=Nc2ccccc2)c(N)n1`: the outcome was inactive.

As to `CC(C)CCCCCCOC(=O)c1ccccc1C(=O)OCCCCCCC(C)C`, the outcome is “inactive; active”.

For the molecule `Nc1ccc([N+](=O)[O-])cc1O`, the result was active.

For the molecule `O=[N+]([O-])c1ccc(-c2nc(NCCO)c3ccccc3n2)s1`, the outcome was active.

With `CC[N+](=O)[O-]`, the outcome was “inactive; active”.

`O=Cc1ccccc1`: the outcome is “inactive; active”.

As for `CCN(CC)C(=O)c1cccc(C)c1`, the outcome is “inactive; active”.

Take `O=NN1CCC(O)C1` (stereo unspecified): the outcome was active.

Take `O=P(OCCCl)(OCCCl)OCCCl`: the result was inactive.

On to `C[C@](N)(Cc1ccc(O)c(O)c1)C(=O)O`, for which the result was inactive.

Take `CCOC(=O)C1OC1(C)c1ccccc1` (stereo unspecified): the outcome is “inactive; active”.

With `CN(C)CNc1nnc(/C=C/c2ccc([N+](=O)[O-])o2)o1`, the result was active.

Turning to `O[C@H]([C@H](O)[C@@H](O)CBr)[C@H](O)CBr`, the outcome was “active; inactive”.

Turning to `CC1CN(N=O)C(=O)NC1=O` (stereo unspecified), the outcome was active.

As for `COCCl`, the outcome was “inactive; active”.

As for `ClC1=C(Cl)[C@@]2(Cl)[C@@H]3[C@@H](Cl)[C@H](Cl)C[C@@H]3C1(Cl)C2(Cl)Cl`, the outcome was “inactive; active”.

Take `CCN(CC)N=O`: the outcome is “active; inactive”.

Take `CCOc1ccc2c(c1)C(C)=CC(C)(C)N2`: the outcome was “inactive; active”.

For the molecule `[Cl-].[Cl-].[Cl-].[Fe+3]`, the outcome was inactive.

Regarding `Nc1nc(N)c2nc(-c3ccccc3)c(N)nc2n1`, the outcome is “inactive; active”.

Consider `Cn1c(N)nc2ncc(-c3ccccc3)cc21`, for which the result was active.

On to `Cc1ccc(N=Nc2c(O)c(S(=O)(=O)O)cc3ccc(S(=O)(=O)O)cc23)c(C)c1`, for which the outcome was active.

As to `CC(CN1c2ccccc2Sc2ccccc21)N(C)C` (stereo unspecified), the outcome was inactive.

With `O=C(O)CN(CC(=O)O)CC(=O)O`, the outcome was “inactive; active”.

In the case of `CCCCN(N=O)C(N)=O`, the result was active.

As to `CC(=O)Nc1ccc2c(c1)Cc1cc(NC(C)=O)ccc1-2`, the outcome was active.

For `Cc1ccc2c(c1N)C(=O)c1ccccc1C2=O`, the result was active.

As for `Nc1nc(N)nc(-c2ccc([N+](=O)[O-])o2)n1`, the result was active.

With `ClC/C=C/CCl`, the outcome is “active; inactive”.

Turning to `CCNc1nc(Cl)nc(NCC)n1`, the outcome was inactive.

For the molecule `CC(=O)Oc1ccccc1C(=O)O`, the outcome was inactive.

For `C1OC1C1CO1` (stereo unspecified), the result was active.

With `COP(=O)(OC)OC=C(Cl)Cl`, the outcome was “active; inactive”.

In the case of `O`, the outcome was inactive.

Regarding `O=P(OCC(Br)CBr)(OCC(Br)CBr)OCC(Br)CBr` (stereo unspecified), the outcome was active.

Consider `CC(=O)Nc1ccc2c(c1)Cc1ccccc1-2`, for which the result was active.

With `[O-][Br+2]([O-])O`, the result was active.

For the molecule `NCC(=O)O`, the result was inactive.

For the molecule `O=NN1CC=CCC1`, the result was active.

Consider `ClC(Cl)(Cl)c1ccccc1`, for which the result was active.

For the molecule `CCOc1ccc(NC(C)=O)cc1N`, the result was active.

In the case of `COc1c2occc2cc2ccc(=O)oc12`, the outcome was active.

On to `C=CC=O`, for which the outcome is “active; inactive”.

`C[N+](=O)[O-]`: the outcome was “inactive; active”.

Regarding `CC[C@H]1CN2CCc3cc(OC)c(OC)cc3[C@@H]2C[C@@H]1C[C@H]1NCCc2cc(OC)c(OC)cc21`, the outcome was “inactive; active”.

Consider `NC(=S)Nc1cccc2ccccc12`, for which the outcome is “active; inactive”.

In the case of `COc1ccc(C(Cl)=C(c2ccc(OC)cc2)c2ccc(OC)cc2)cc1`, the outcome was inactive.

Turning to `CCN(Cc1cccc(S(=O)(=O)[O-])c1)c1ccc(C(=C2C=CC(=[N+](C)C)C=C2)c2ccc(N(CC)Cc3cccc(S(=O)(=O)O)c3)cc2)cc1`, the outcome was active.

Regarding `CC(O)CO` (stereo unspecified), the result was inactive.

With `O=C1CN(/N=C/c2ccc([N+](=O)[O-])o2)C(=O)N1`, the result was active.

As to `Clc1ccc(C(c2ccc(Cl)cc2)C(Cl)(Cl)Cl)cc1`, the result was inactive.

As for `[CH3][Hg][Cl]`, the outcome is “inactive; active”.

On to `Cc1cc(C)nc(NS(=O)(=O)c2ccc(N)cc2)n1`, for which the outcome was inactive.

In the case of `CCBr`, the outcome was active.

On to `C=CCO`, for which the outcome was inactive.

Consider `O=C(O)c1ccccc1-c1c2cc(I)c(=O)c(I)c-2oc2c(I)c(O)c(I)cc12`, for which the outcome was inactive.

Turning to `CC(N)=O`, the outcome was “inactive; active”.

Consider `Nc1ccc(NCCO)c([N+](=O)[O-])c1`, for which the result was active.

`C=CN1CCCC1=O`: the outcome was inactive.

Take `Cc1c(N)nc(C)c2c1[nH]c1ccccc12`: the result was active.

Turning to `Oc1ccc(Cl)cc1Cc1ccccc1`, the outcome is “inactive; active”.

In the case of `NC(=S)Nc1ccccc1`, the outcome was inactive.

Regarding `O=C/C=C/O`, the outcome was inactive.
